From ChEMBL document CHEMBL1140563, “Redefining the structure-activity relationships of 2,6-methano-3-benzazocines. 5. Opioid receptor binding properties of N-((4'-phenyl)-phenethyl) analogues of 8-CAC” (Bioorg Med Chem Lett, 2007)
Activity calls are given as the source filed them. No cut-off for these calls is given here.

Assays:
[1] = target: T1, Delta-type opioid receptor (Homo sapiens, UniProt P41143); test: Displacement of [3H]naltrindole from delta opioid receptor expressed in CHO cells; format: cell-based
T1 sequence (P41143 whole entry): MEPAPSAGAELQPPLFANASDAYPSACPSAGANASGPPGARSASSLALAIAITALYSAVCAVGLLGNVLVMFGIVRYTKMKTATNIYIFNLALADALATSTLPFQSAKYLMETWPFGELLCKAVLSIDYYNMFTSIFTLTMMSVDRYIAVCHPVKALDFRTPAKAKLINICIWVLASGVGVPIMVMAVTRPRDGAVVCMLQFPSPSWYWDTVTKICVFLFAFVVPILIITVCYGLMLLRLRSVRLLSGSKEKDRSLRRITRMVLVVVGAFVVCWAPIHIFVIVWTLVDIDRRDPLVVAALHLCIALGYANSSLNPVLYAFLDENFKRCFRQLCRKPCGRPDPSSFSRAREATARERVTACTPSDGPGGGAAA

Mu-type opioid receptor [2] = target: T2, Mu-type opioid receptor (Homo sapiens, UniProt P35372); test: Displacement of [3H]DAMGO from mu opioid receptor expressed in CHO cells; format: cell-based
T2 sequence (P35372 whole entry): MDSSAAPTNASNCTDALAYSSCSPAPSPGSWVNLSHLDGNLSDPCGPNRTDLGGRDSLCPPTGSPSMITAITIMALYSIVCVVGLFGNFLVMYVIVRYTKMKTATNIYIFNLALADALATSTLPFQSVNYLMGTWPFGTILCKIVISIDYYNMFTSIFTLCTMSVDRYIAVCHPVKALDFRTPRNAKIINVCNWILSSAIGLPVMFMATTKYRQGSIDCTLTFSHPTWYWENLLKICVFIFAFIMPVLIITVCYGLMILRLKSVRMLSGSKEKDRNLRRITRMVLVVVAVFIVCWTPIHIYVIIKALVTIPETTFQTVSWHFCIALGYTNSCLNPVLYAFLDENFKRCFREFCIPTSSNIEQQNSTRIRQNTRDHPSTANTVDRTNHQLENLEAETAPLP

[3] = target: T3, Kappa-type opioid receptor (Homo sapiens, UniProt P41145); test: biochemical; format: cell-based, CHO
T3 sequence (P41145 whole entry): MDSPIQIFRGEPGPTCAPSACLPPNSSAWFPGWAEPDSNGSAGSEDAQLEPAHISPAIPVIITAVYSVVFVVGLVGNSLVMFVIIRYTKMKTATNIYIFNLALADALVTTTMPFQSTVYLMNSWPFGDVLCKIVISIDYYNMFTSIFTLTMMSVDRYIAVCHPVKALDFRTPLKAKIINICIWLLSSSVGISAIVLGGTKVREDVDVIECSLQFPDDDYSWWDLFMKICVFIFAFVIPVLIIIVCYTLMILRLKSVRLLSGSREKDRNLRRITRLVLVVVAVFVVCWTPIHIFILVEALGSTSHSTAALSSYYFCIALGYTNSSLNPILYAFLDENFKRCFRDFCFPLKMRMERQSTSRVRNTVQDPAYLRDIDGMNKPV
Description: Displacement of [3H]U-69593 from kappa opioid receptor expressed in CHO cells

[4] = target: T3, Kappa-type opioid receptor; test: Agonist activity at human kappa opioid receptor expressed in CHO cell membrane by [35S]GTP-gamma-S binding assay; format: functional, cell membranes
[5] = target: T3, Kappa-type opioid receptor; test: Antagonist activity at human kappa opioid receptor expressed in CHO cell membrane assessed as inhibition of U50,488 induced [35S]GTPgammaS binding; format: functional, cell membranes
Mu-type opioid receptor [6] = target: T2, Mu-type opioid receptor; test: Agonist activity at human mu opioid receptor expressed in CHO cell membrane by [35S]GTPgammaS binding assay; format: functional, cell membranes
Mu-type opioid receptor [7] = target: T2, Mu-type opioid receptor; test: Antagonist activity at human mu opioid receptor expressed in CHO cell membrane assessed as inhibition of DAMGO induced [35S]GTP-gamma-S binding; format: functional, cell membranes
Mu-type opioid receptor [8] = target: T2, Mu-type opioid receptor; test: Antagonist activity at human mu opioid receptor expressed in CHO cell membrane assessed as inhibition of DAMGO induced [35S]GTP-gamma-S binding at 10 uM; format: functional, cell membranes
[9] = target: T1, Delta-type opioid receptor; test: Agonist activity at human delta opioid receptor expressed in CHO cell membrane by [35S]GTP-gamma-S binding assay; format: functional, cell membranes
[10] = target: T1, Delta-type opioid receptor; test: Antagonist activity at human delta opioid receptor expressed in CHO cell membrane assessed as inhibition of SNC80 induced [35S]GTPgammaS binding; format: functional, cell membranes

SMILES | Ki [1] [nM] | Ki (Mu-type opioid receptor [2]) [nM] | Ki [3] [nM] | EC50 [4] [nM] | Emax [4] [%] | Activity [5] | EC50 (Mu-type opioid receptor [6]) [nM] | Emax (Mu-type opioid receptor [6]) [%] | IC50 (Mu-type opioid receptor [7]) [nM] | Imax (Mu-type opioid receptor [7]) [%] | Imax (Mu-type opioid receptor [8]) [%] | EC50 [9] [nM] | Emax [9] [%] | Activity (Mu-type opioid receptor [7]) | Activity [10]
C[C@H]1C2Cc3ccc(C(=O)NCc4ccc5ccccc5c4)cc3[C@@]1(C)CCN2CC1CC1 | 31 | 1.3 | 19 | – | – | – | – | – | – | – | – | – | – | – | –
C[C@H]1C2Cc3ccc(C(=O)NCCCc4ccc5ccccc5c4)cc3[C@@]1(C)CCN2CC1CC1 | 18 | 1.9 | 0.18 | 6.3 | 98 | inactive | 24 | 31 | 320 | 78 | – | – | – | – | –
C[C@H]1C2Cc3ccc(C(=O)NCCc4ccc(-c5ccc(Cl)c(Cl)c5)cc4)cc3[C@@]1(C)CCN2CC1CC1 | 2.5 | 0.98 | 1.1 | – | – | – | – | – | – | – | – | – | – | – | –
C[C@H]1C2Cc3ccc(C(=O)NCCc4ccc5ccccc5c4)cc3[C@@]1(C)CCN2CC1CC1 | 0.9 | 0.18 | 0.2 | – | – | – | – | – | – | – | – | – | – | – | –
C[C@H]1C2Cc3ccc(C(=O)NCCc4ccccc4-c4ccccc4)cc3[C@@]1(C)CCN2CC1CC1 | 21 | 6.7 | 2.4 | 42 | 97 | – | 12 | 36 | – | – | 73 | – | – | – | –
C[C@H]1C2Cc3ccc(C(=O)NCCc4ccccc4Br)cc3[C@@]1(C)CCN2CC1CC1 | 150 | 4 | 19 | – | – | – | – | – | – | – | – | – | – | – | –
C[C@H]1C2Cc3ccc(C(=O)NCCc4ccc(-c5ccc(Cl)cc5)cc4)cc3[C@@]1(C)CCN2CC1CC1 | – | – | – | 6.4 | 96 | inactive | 2.5 | 31 | – | – | 71 | 2 | 45 | inactive | inactive
C[C@H]1C2Cc3ccc(C(=O)NCc4cccc5ccccc45)cc3[C@@]1(C)CCN2CC1CC1 | 52 | 2.5 | 18 | – | – | – | – | – | – | – | – | – | – | – | –
C[C@H]1C2Cc3ccc(C(=O)NCCc4cccc5ccccc45)cc3[C@@]1(C)CCN2CC1CC1 | 24 | 4.2 | 2.4 | – | – | – | – | – | – | – | – | – | – | – | –
COc1ccc(-c2ccc(CCNC(=O)c3ccc4c(c3)[C@@]3(C)CCN(CC5CC5)C(C4)[C@@H]3C)cc2)cc1 | – | – | – | 1.1 | 98 | inactive | 11 | 27 | 24 | 82 | – | 0.68 | 70 | – | inactive
C[C@H]1C2Cc3ccc(C(=O)NCCc4cccc(-c5ccccc5)c4)cc3[C@@]1(C)CCN2CC1CC1 | 5.9 | 0.95 | – | 12 | 95 | inactive | 6.8 | 41 | – | – | 72 | 18 | 43 | inactive | inactive
C[C@H]1C2Cc3ccc(C(=O)NCCc4ccc(Br)cc4)cc3[C@@]1(C)CCN2CC1CC1 | 2.5 | 2.4 | 0.38 | 20 | 110 | inactive | 16 | 73 | – | – | – | 20 | 120 | inactive | inactive
C[C@H]1C2Cc3ccc(C(=O)NCCc4cccc(Br)c4)cc3[C@@]1(C)CCN2CC1CC1 | 3.5 | 0.35 | 0.063 | 4.6 | 110 | inactive | 5.6 | 24 | 230 | 85 | – | 14 | 85 | – | inactive
C[C@H]1[C@H]2Cc3ccc(O)cc3[C@@]1(C)CCN2CC1CC1 | 2 | – | 0.07 | – | – | – | – | – | – | – | – | – | – | – | –
C[C@H]1C2Cc3ccc(C(=O)NCCCc4cccc5ccccc45)cc3[C@@]1(C)CCN2CC1CC1 | 18 | 2.4 | 1.9 | – | – | – | – | – | – | – | – | – | – | – | –
